Test results as given in patent US10323061B2, “Heteroaryl containing bile acid analogs as FXR/TGR5 agonists and methods of use thereof” (ENANTA PHARMACEUTICALS, INC., priority 2016, dated 2019).

Molecular target: T1, human FXR (NR1H4) (Homo sapiens, UniProt Q96RI1)
T1 construct: host or cells: CHO (Chinese hamster ovary) cells
T1 sequence (Q96RI1 1-486): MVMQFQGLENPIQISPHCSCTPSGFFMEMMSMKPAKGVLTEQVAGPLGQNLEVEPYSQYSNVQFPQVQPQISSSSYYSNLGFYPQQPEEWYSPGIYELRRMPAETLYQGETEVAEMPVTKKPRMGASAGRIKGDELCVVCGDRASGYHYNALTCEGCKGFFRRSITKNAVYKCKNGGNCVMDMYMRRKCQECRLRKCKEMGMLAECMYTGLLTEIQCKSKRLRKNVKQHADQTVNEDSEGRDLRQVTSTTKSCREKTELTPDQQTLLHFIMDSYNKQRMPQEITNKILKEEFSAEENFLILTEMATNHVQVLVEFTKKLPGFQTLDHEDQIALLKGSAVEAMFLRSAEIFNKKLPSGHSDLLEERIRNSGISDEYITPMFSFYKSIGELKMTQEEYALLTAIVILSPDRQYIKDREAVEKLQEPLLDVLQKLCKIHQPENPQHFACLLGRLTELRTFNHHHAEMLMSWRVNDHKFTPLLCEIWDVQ
Test: Human FXR (NR1H4) Assay (Gal4 promoter driven luciferase reporter, Indigo Bioscience kit IB00601)
Assay type: cell-based
Details: CHO reporter cells expressing human NR1H4; for EC50: FXR agonistic potency range, 22 hours incubation; for Efficacy (%): normalized to CDCA set as 100%
Text: Assays Human FXR (NR1H4) Assay Determination of a ligand mediated Gal4 promoter driven transactivation to quantify ligand binding mediated activation of FXR. FXR Reporter Assay kit purchased from Indigo Bioscience (Catalogue number: IB00601) to determine the potency and efficacy of compound developed by Enanta that can induce FXR activation. The principal application of this reporter assay system is to quantify functional activity of human FXR. The assay utilizes non-human mammalian cells, CHO (Chinese hamster ovary) cells engineered to express human NR1H4 protein (referred to as FXR). Reporter cells also incorporate the cDNA encoding beetle luciferase which catalyzes the substrates and yields photon emission. Luminescence intensity of the reaction is quantified using a plate-reading luminometer, Envision. Reporter Cells include the luciferase reporter gene functionally linked to an FXR responsive promoter. Thus, quantifying changes in luciferase expression in the treated reporter cells provides a sensitive surrogate measure of the changes in FXR activity. […] The assay is according to the manufacturer's instructions. In brief, the assay was performed in white, 96 well plates using final volume of 100 ul containing cells with different doses of compounds. Retrieve Reporter Cells from −80° C. storage. Perform a rapid thaw of the frozen cells by transferring a 10 ml volume of 37° C. cell recovery medium into the tube of frozen cells. Recap the tube of Reporter Cells and immediately place it in a 37° C. water bath for 5-10 minutes. Retrieve the tube of Reporter Cell Suspension from the water bath. Sanitize the outside surface of the tube with a 70% alcohol swab, and then transfer it into the cell culture hood. Dispense 90 μl of cell suspension into each well of the 96-well Assay Plate. Transfer the plate into 37° C. incubator, allowing the cells adherent to the bottom of the well. Dilute compounds in Dilution Plate (DP), and administrate to cells at Assay Plate (AP). DMSO content of the samples was kept at 0.2%. Cells were incubated for additional 22 hours before luciferase activities were measured. Thirty minutes before intending to quantify FXR activity, remove Detection Substrate and Detection Buffer from the refrigerator and place them in a low-light area so that they may equilibrate to room temperature. Remove the plate's lid and discard all media contents by ejecting it into an appropriate waste container. Gently tap the inverted plate onto a clean absorbent paper towel to remove residual droplets. Cells will remain tightly adhered to well bottoms. Add 100 μl of luciferase detection reagent to each well of the assay plate. Allow the assay plate to rest at room temperature for at least 5 minutes following the addition of LDR. Set the instrument (Envision) to perform a single 5 second “plate shake” prior to reading the first assay well. Read time may be 0.5 second (500 mSec) per well.

SMILES | EC50 [nM] | Efficacy (%)
CC[C@H]1[C@@H](O)[C@@H]2[C@H](CC[C@]3(C)[C@@H]([C@H](C)CCc4nnc(C5CCCCC5)s4)CC[C@@H]23)[C@@]2(C)CC[C@@H](O)C[C@@H]12 [Example 18] | 1000 to 10000 | 244
CC[C@H]1[C@@H](O)[C@@H]2[C@H](CC[C@]3(C)[C@@H]([C@H](C)CCc4nnc(C(C)(C)C)s4)CC[C@@H]23)[C@@]2(C)CC[C@@H](O)C[C@@H]12 [Example 17] | 100 to 1000 | 314
CC[C@H]1[C@@H](O)[C@@H]2[C@H](CC[C@]3(C)[C@@H]([C@H](C)CCc4nc(C5CC5)no4)CC[C@@H]23)[C@@]2(C)CC[C@@H](O)C[C@@H]12 [Example 11] | 1000 to 10000 | 239
CC[C@H]1[C@@H](O)[C@@H]2[C@H](CC[C@]3(C)[C@@H]([C@H](C)CCc4nnc(N)o4)CC[C@@H]23)[C@@]2(C)CC[C@@H](O)C[C@@H]12 [Example 9] | 100 to 1000 | 222
CC[C@H]1[C@@H](O)[C@@H]2[C@H](CC[C@]3(C)[C@@H]([C@H](C)CCc4nnc(N(C)C)o4)CC[C@@H]23)[C@@]2(C)CC[C@@H](O)C[C@@H]12 [Example 14] | 100 to 1000 | 265
CC[C@H]1[C@@H](O)[C@@H]2[C@H](CC[C@]3(C)[C@@H]([C@H](C)CCc4nnc(Cc5ccccc5)s4)CC[C@@H]23)[C@@]2(C)CC[C@@H](O)C[C@@H]12 [Example 16] | 100 to 1000 | 378
CC[C@H]1[C@@H](O)[C@@H]2[C@H](CC[C@]3(C)[C@@H]([C@H](C)CCc4nnc(C5CC5)[nH]4)CC[C@@H]23)[C@@]2(C)CC[C@@H](O)C[C@@H]12 [Example 13] | 1000 to 10000 | 168
CC[C@H]1[C@@H](O)[C@@H]2[C@H](CC[C@]3(C)[C@@H]([C@H](C)CCc4nnc(C5CC5)o4)CC[C@@H]23)[C@@]2(C)CC[C@@H](O)C[C@@H]12 [Example 10] | 100 to 1000 | 304
CC[C@H]1[C@@H](O)[C@@H]2[C@H](CC[C@]3(C)[C@@H]([C@H](C)Cc4nnc(-c5ccc(C(C)(C)C)cc5)o4)CC[C@@H]23)[C@@]2(C)CC[C@@H](O)C[C@@H]12 [Example 20] | 1000 to 10000 | 87
CC[C@H]1[C@@H](O)[C@@H]2[C@H](CC[C@]3(C)[C@@H]([C@H](C)CCc4nnc(-c5ccc(C(C)(C)C)cc5)s4)CC[C@@H]23)[C@@]2(C)CC[C@@H](O)C[C@@H]12 [Example 19] | 1000 to 10000 | 172
CC[C@H]1[C@@H](O)[C@@H]2[C@H](CC[C@]3(C)[C@@H]([C@H](C)CCc4nnc(C5CC5)s4)CC[C@@H]23)[C@@]2(C)CC[C@@H](O)C[C@@H]12 [Example 12] | 100 to 1000 | 369
CC[C@H]1[C@@H](O)[C@@H]2[C@H](CC[C@]3(C)[C@@H]([C@H](C)Cc4nnc(NS(=O)(=O)N(C)C)[nH]4)CC[C@@H]23)[C@@]2(C)CC[C@@H](O)C[C@@H]12 [Example 8] | 100 to 1000 | 234
CC[C@H]1[C@@H](O)[C@@H]2[C@H](CC[C@]3(C)[C@@H]([C@H](C)CCc4nnc(-c5ccccc5)s4)CC[C@@H]23)[C@@]2(C)CC[C@@H](O)C[C@@H]12 [Example 15] | 100 to 1000 | 362
